In US9656990B2, “Cathepsin cysteine protease inhibitors” (Merck Sharp & Dohme Corp., priority 2014, dated 2017) one finds IC50 data, which are given here for eight molecules.

The target of assay [1] is human cathepsin K (UniProt P43236, Y175D/V274L, species not given). Description: Cathepsin K Assay. The class given is biochemical. The following applies: IP from dose response curve; Z-Leu-Arg-AMC substrate, pH 5.5; read-out: hrbCat K (IP (nM)).
In assay [2] the target is T1, human cathepsin F (Homo sapiens, UniProt Q9UBX1).
T1 sequence (Q9UBX1 271-484): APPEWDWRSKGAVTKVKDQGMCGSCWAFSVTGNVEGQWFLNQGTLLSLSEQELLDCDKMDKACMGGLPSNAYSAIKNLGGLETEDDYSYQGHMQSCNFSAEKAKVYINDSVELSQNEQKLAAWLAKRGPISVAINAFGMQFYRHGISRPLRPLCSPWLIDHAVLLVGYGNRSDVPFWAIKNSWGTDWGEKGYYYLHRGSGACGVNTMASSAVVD
Description: Cathepsin F Assay. The class given is biochemical. The following applies: IP from dose response curve; Z-Phe-Arg-AMC substrate, pH 5.5; read-out: hCat F (IP (nM)). The essentials:
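Human cathepsin F (10 nM) preincubated 15 min at room temperature with compounds in 50 mM MES pH 5.5, 2.5 mM EDTA, 2.5 mM DTT, 10% DMSO. Z-Phe-Arg-AMC (8 μM) added; AMC release read by fluorescence (Ex 360/Em 460 nm) over 20 min, inhibition fit to dose-response model.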

Each structure is given as a SMILES string.

On to `N#CC1(NC(=O)[C@@H]2CCCC[C@H]2c2nn(-c3ccc(F)cn3)c(CO)c2-c2ccc(N3CCS(=O)(=O)CC3)cc2)CC1` [Example 30, (1R,2R)-N-(1-cyanocyclopropyl)-2-(4-(4-(1,1-dioxidothiomorpholino)phen-yl)-1-(5-fluoropyridin-2-yl)-5-(hydroxymethyl)-1H-pyrazol-3-yl)cyclohexanecarboxamide], for which the results for the IC50 in assay [1] and in assay [2] were 11 nM and 5870 nM, respectively.
Regarding `Cc1c(-c2ccc(N3CCS(=O)(=O)CC3)cc2)c([C@@H]2CCC(F)(F)C[C@H]2C(=O)N[C@H](C#N)C(C)C)nn1-c1ccc(F)cn1` [Example 31, (1R,2R)-N-((S)-1-cyano-2-methylpropyl)-2-(4-(4-(1,1-dioxidothiomorpholino)phen-yl)-1-(5-fluoropyridin-2-yl)-5-methyl-1H-pyrazol-3-yl)-5,5-difluorocyclohexanecarbox-amide], the values for the IC50 in assay [1] and in assay [2] were 1.63 nM and 115 nM, respectively.
Regarding `CC(C)[C@@H](C#N)NC(=O)[C@@H]1CCC(F)(F)C[C@H]1c1nn(-c2ncccc2F)cc1-c1ccc(N2CCS(=O)(=O)CC2)cc1` [Example 32, (1R,2R)-N-((S)-1-cyano-2-methylpropyl)-2-(4-(4-(1,1-dioxidothiomorpholino)phen-yl)-1-(3-fluoropyridin-2-yl)-1H-pyrazol-3-yl)-4,4-difluorocyclohexanecarbox-amide], the results for the IC50 in assay [1] and in assay [2] were 7.11 nM and 2780 nM, respectively.
With `N#CC1(NC(=O)[C@@H]2CCC(F)(F)C[C@H]2c2nn(-c3ncccc3F)cc2-c2ccc(N3CCS(=O)(=O)CC3)cc2)CC1` [Example 33, (1R,2R)-N-(1-cyanocyclopropyl)-2-(4-(4-(1,1-dioxidothiomorpholino)phen-yl)-1-(3-fluoropyridin-2-yl)-1H-pyrazol-3-yl)-4,4-difluorocyclohexanecarbox-amide], the IC50 in assay [1] worked out at 13.6 nM; in assay [2], 9540 nM.
As for `C[C@@H](C#N)NC(=O)[C@@H]1CCC(F)(F)C[C@H]1c1nn(-c2ncccc2F)cc1-c1ccc(N2CCS(=O)(=O)CC2)cc1` [Example 34, (1R,2R)-N-((S)-1-cyanoethyl)-2-(4-(4-(1,1-dioxidothiomorpholino)phen-yl)-1-(3-fluoropyridin-2-yl)-1H-pyrazol-3-yl)-4,4-difluorocyclohexanecarbox-amide], the IC50 in assay [1] stood at 5.4 nM; in assay [2] it was 2830 nM.
For the molecule `CC(C)[C@@H](C#N)NC(=O)[C@@H]1CCC(F)(F)C[C@H]1c1nn(-c2ncccc2F)cc1-c1ccc(N2CCS(=N)(=O)CC2)cc1` [Example 35, (1R,2R)-N-((S)-1-cyano-2-methylpropyl)-4,4-difluoro-2-(1-(3-fluoropyridin-2-yl)-4-(4-(1-imino-1-oxidothiomorpholino)phenyl)-1H-pyrazol-3-yl)cyclohexanecarboxamide], the IC50 in assay [1] amounted to 9.69 nM; in assay [2] it was 4890 nM.
Regarding `CN=S1(=O)CCN(c2ccc(-c3cn(-c4ncccc4F)nc3[C@@H]3CC(F)(F)CC[C@H]3C(=O)N[C@H](C#N)C(C)C)cc2)CC1` [Example 36, (1R,2R)-N-((S)-1-cyano-2-methylpropyl)-4,4-difluoro-2-(1-(3-fluoropyridin-2-yl)-4-(4-(1-(methylimino)-1-oxidothiomorpholino)phenyl)-1H-pyrazol-3-yl)cyclohexanecarboxamide], the IC50 in assay [1] was 8.79 nM; in assay [2], 8180 nM.
For `CN=S1(=O)CCN(c2ccc(-c3cn(-c4ccc(F)cn4)nc3[C@@H]3CC[C@H](F)C[C@H]3C(=O)NC3(C#N)CC3)cc2)CC1` [Example 37, (1R,2R,5S)-N-(1-cyanocyclopropyl)-5-fluoro-2-(1-(5-fluoropyridin-2-yl)-4-(4-(1-(methylimino)-1-oxidothiomorpholino)phenyl)-1H-pyrazol-3-yl)cyclohexanecarboxamide] the same measures were 1.76 nM and 1660 nM.
